The values below come from US6835733B2, “Tropane linked benzofuran derivatives” (Eli Lilly and Company, priority 1999, dated 2004).

Where a name gives a salt, the structure may show the parent alone.

The term melting point denotes the temperature of the solid-liquid transition.

On to `COc1cccc2sc(C3=CC4CCC(C3)N4C[C@H](O)COc3cccc4occc34)cc12` (stereo partly shown) (as salt: oxalate), for which the melting point is 201 to 204 °C (dec.).
